Laboratory results: patent US20240409556A1, “BENZOPIPERAZINE AND RELATED ANALOGS FOR INHIBITING YAP/TAZ-TEAD” (Springworks Therapeutics, Inc., priority 2023, published 2024)

How the values were obtained:
Assay type in all cases: cell-based
[1] = system: NCI-H2052 mesothelioma cell line; assay: Mesothelioma cell line proliferation assay, NCI-H2052 (ATPlite); details: NCI-H2052 cells, 6 days with compound, cell viability by ATPlite
Experimental: (§1) Example 57: Activity of Compounds of the Disclosure in Mesothelioma Cell Line Proliferation Assays
(§2) Mesothelioma cell lines, NCI-H226 and NCI-H2052 (both sourced from the ATCC cell culture collection) were plated in 96-well plates (Corning® 96 Well White Polystyrene Microplate clear flat bottom, white polystyrene (TC-Treated)), at 1500 cells/well in full medium (RPMI 1640 ATCC modification with L-glutamine, HEPES, Phenol Red, Sodium Pyruvate, High glucose, Low sodium bicarbonate and 10% fetal bovine serum). Cells were incubated overnight at 37° C. in an incubator with 5% CO2. Then compounds, dissolved in DMSO, were added in dose-response. Cells were incubated with compound dilutions for another 6 days at 37° C. in an incubator with 5% CO2. Cell viability was quantitated using the ATPlite kit (Perkin-Elmer) and the luminescence was read-out using an Envision instrument (Perkin-Elmer). The amount of relative light units produced using the ATPlite kit was used to calculate percent of inhibition.
(§3) The activities of some example compounds are depicted in Table 4. The activity ranges A, B and C refer to EC50 values in the mesothelioma cell line proliferation assay as described as follows: “A”: EC50<1 μM; “B”: 1 μM≤EC50≤10 μM and “C”: EC50>10 μM; NT: not tested.

[2] = system: NCI-H226 mesothelioma cell line; assay: Mesothelioma cell line proliferation assay, NCI-H226 (ATPlite); details: NCI-H226 cells, 6 days with compound, cell viability by ATPlite
Experimental: as §1, §2, §3

[3] = system: YAP/TAZ-TEAD transcription; assay: Reporter gene assay for measuring the inhibition of YAP/TAZ-TEAD transcription (TEAD-responsive element luciferase reporter in Hek293T cells); details: 24 hours incubation
In short: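 HEK293T cells transiently transfected with a TEAD-responsive luciferase reporter were exposed to compounds for 24 h at 37° C/5% CO2, then luminescence was read. Percent inhibition normalised to vehicle (0%) and positive-control inhibitor (100%); IC50 derived.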

EC50 ([1]; Homo sapiens, 144 h) [nM]	EC50 ([2]; Homo sapiens, 144 h) [nM]	IC50 ([3]; Homo sapiens, HEK-293T, 24 h) [nM]	IC50 [3] [nM]	EC50 [1] [nM]	EC50 [2] [nM]	Compound
< 1000	< 1000	< 1000	–	–	–	C=CC(=O)NC[C@@H]1CN(c2ccc(C(F)(F)F)cc2)c2cccnc2N1 [38-En2, (R)-N-((1-(4-(trifluoromethyl)phenyl)-1,2,3,4-tetrahydropyrido[2,3-b]pyrazin-3-yl)methyl)acrylamide]
< 1000	< 1000	–	< 1000	–	–	CC(=O)N1CCN2c3ncccc3N(c3ccc(C(F)(F)F)cn3)CC2C1 (stereo not drawn) [53-En1, 1-(5-(5-(trifluoromethyl)pyridin-2-yl)-5,6,6a,7,9,10-hexahydro-8H-pyrazino[1,2-a]pyrido[3,2-e]pyrazin-8-yl)ethan-1-one]
< 1000	< 1000	–	< 1000	–	–	Cc1ccc2c(n1)N1CCC(C(=O)O)CC1CN2c1ccc(C(F)(F)F)cc1 [101-D2, (6aS,8S)— or (6aR,8S)— or (6aR,8R)— or (6aS,8R)-2-methyl-5-(4-(trifluoromethyl)phenyl)-6,6a,7,8,9,10-hexahydro-5H-dipyrido[1,2-a:3′,2′-e]pyrazine-8-carboxylic acid]
–	–	–	< 1000	< 1000	< 1000	Cc1ccc2c(n1)N1CCC(C(=O)O)CC1CN2c1ccc(C(F)(F)F)cc1 [101-D4, (6aS,8S)— or (6aR,8S)— or (6aR,8R)— or (6aS,8R)-2-methyl-5-(4-(trifluoromethyl)phenyl)-6,6a,7,8,9,10-hexahydro-5H-dipyrido[1,2-a:3′,2′-e]pyrazine-8-carboxylic acid]
< 1000	< 1000	–	< 1000	–	–	O=C(NO)C1CCN2c3ccccc3N(c3ccc(C(F)(F)F)cc3)CC2C1 [116B-En2, (6aS,8S)- or (6aR,8S)- or (6aR,8R)- or (6aS,8R)-N-hydroxy-5-(4-(trifluoromethyl)phenyl)-6,6a,7,8,9,10-hexahydro-5H-pyrido[1,2-a]quinoxaline-8-carboxamide]
< 1000	< 1000	–	< 1000	–	–	NC(=O)C1CCN2c3ccccc3N(c3ccc(C(F)(F)F)cc3)CC2C1 (stereo not drawn) [117B-En2, (cis)- or (trans)-5-(4-(trifluoromethyl)phenyl)-6,6a,7,8,9,10-hexahydro-5H-pyrido[1,2-a]quinoxaline-8-carboxamide]
< 1000	< 1000	< 1000	–	–	–	O=C(O)C1(F)CCN2c3ccccc3N(c3ccc(C(F)(F)F)cc3)CC2C1 [123-D1, (6aS,8S)- or (6aR,8S)- or (6aR,8R)- or (6aS,8R)-8-fluoro-5-(4-(trifluoromethyl)phenyl)-6,6a,7,8,9,10-hexahydro-5H-pyrido[1,2-a]quinoxaline-8-carboxylic acid]
< 1000	< 1000	< 1000	–	–	–	C=CC(=O)NCC1CN(c2ccc(C(F)(F)F)cc2)c2ccccc2N1CC#N (stereo not drawn) [compound 3, N-((1-(cyanomethyl)-4-(4-(trifluoromethyl)phenyl)-1,2,3,4-tetrahydroquinoxalin-2-yl)methyl)acrylamide]
< 1000	< 1000	< 1000	–	–	–	C=CC(=O)NCC1CN(c2ccc(C(F)(F)F)cc2)c2ccccc2N1CCC(N)=O (stereo not drawn) [compound 13, N-((1-(3-amino-3-oxopropyl)-4-(4-(trifluoromethyl)phenyl)-1,2,3,4-tetrahydroquinoxalin-2-yl)methyl)acrylamide]
< 1000	< 1000	< 1000	–	–	–	CC(=O)N1CCN2c3ccccc3N(c3ccc(C(F)(F)F)cc3)CC2C1 (stereo not drawn) [compound 15, 1-(6-(4-(trifluoromethyl)phenyl)-1,2,4,4a,5,6-hexahydro-3H-pyrazino[1,2-a]quinoxalin-3-yl)ethan-1-one]
< 1000	< 1000	< 1000	–	–	–	C=CC(=O)NCC1CN(c2ccc(C(F)(F)F)cc2)c2ccccc2N1C (stereo not drawn) [compound 17, N-((1-methyl-4-(4-(trifluoromethyl)phenyl)-1,2,3,4-tetrahydroquinoxalin-2-yl)methyl)acrylamide]
< 1000	< 1000	< 1000	–	–	–	C=CC(=O)NCC1CN(c2ccc(C(F)(F)F)cc2)c2ccccc2N1 (stereo not drawn) [compound 22, N-((4-(4-(trifluoromethyl)phenyl)-1,2,3,4-tetrahydroquinoxalin-2-yl)methyl)acrylamide]
< 1000	< 1000	< 1000	–	–	–	CNS(=O)(=O)N1CCN2c3ccccc3N(c3ccc(C(F)(F)F)cc3)CC2C1 (stereo not drawn) [compound 32, N-methyl-6-(4-(trifluoromethyl)phenyl)-1,2,4,4a,5,6-hexahydro-3H-pyrazino[1,2-a]quinoxaline-3-sulfonamide]
< 1000	< 1000	–	< 1000	–	–	CC(=O)NCC1CN(c2ccc(C(F)(F)F)cc2)c2ccccc2N1 (stereo not drawn) [compound 34, N-((4-(4-(trifluoromethyl)phenyl)-1,2,3,4-tetrahydroquinoxalin-2-yl)methyl)acetamide]
< 1000	< 1000	< 1000	–	–	–	C=CC(=O)NCC1CN(c2ccc(C(F)(F)F)cc2)c2ccccc2O1 (stereo not drawn) [compound 35, N-((4-(4-(trifluoromethyl)phenyl)-3,4-dihydro-2H-benzo[b][1,4]oxazin-2-yl)methyl)acrylamide]
< 1000	< 1000	< 1000	–	–	–	CC(=O)NCC1CN(c2ccc(C(F)(F)F)cc2)c2ccccc2O1 (stereo not drawn) [compound 36, N-((4-(4-(trifluoromethyl)phenyl)-3,4-dihydro-2H-benzo[b][1,4]oxazin-2-yl)methyl)acetamide]
< 1000	< 1000	< 1000	–	–	–	C=CC(=O)N1CCN2C(=O)CN(c3ccc(C(F)(F)F)cc3)CC2C1 (stereo not drawn) [compound 37, 8-acryloyl-2-(4-(trifluoromethyl)phenyl)octahydro-4H-pyrazino[1,2-a]pyrazin-4-one]
< 1000	< 1000	< 1000	–	–	–	FC(F)(F)c1ccc(N2CCN(Cc3cnc[nH]3)c3ccccc32)cc1 [compound 51, 1-((1H-imidazol-5-yl)methyl)-4-(4-(trifluoromethyl)phenyl)-1,2,3,4-tetrahydroquinoxaline]
< 1000	< 1000	< 1000	–	–	–	FC(F)(F)c1ccc(N2CCN(Cc3cn[nH]c3)c3ccccc32)cc1 [compound 63, 1-((1H-pyrazol-4-yl)methyl)-4-(4-(trifluoromethyl)phenyl)-1,2,3,4-tetrahydroquinoxaline]
> 10000	1000 to 10000	< 1000	–	–	–	CS(=O)(=O)N[C@@H]1C[C@@H]2CN(c3ccc(C(F)(F)F)cc3)c3cccnc3N2C1 [compound 85, N-((6aR,8R)-5-(4-(trifluoromethyl)phenyl)-5,6,6a,7,8,9-hexahydropyrido[3,2-e]pyrrolo[1,2-a]pyrazin-8-yl)methanesulfonamide]
> 10000	1000 to 10000	< 1000	–	–	–	CNS(=O)(=O)N[C@@H]1C[C@@H]2CN(c3ccc(C(F)(F)F)cc3)c3cccnc3N2C1 [compound 86, N-((6aR,8R)-5-(4-(trifluoromethyl)phenyl)-5,6,6a,7,8,9-hexahydropyrido[3,2-e]pyrrolo[1,2-a]pyrazin-8-yl), N′-methylsulfuric diamide]
< 1000	< 1000	< 1000	–	–	–	O=C(O)[C@@H]1C[C@@H]2CN(c3ccc(C(F)(F)F)cc3)c3cccnc3N2C1 [compound 102, (6aR,8R)-5-(4-(trifluoromethyl)phenyl)-5,6,6a,7,8,9-hexahydropyrido[3,2-e]pyrrolo[1,2-a]pyrazine-8-carboxylic acid]
< 1000	< 1000	< 1000	–	–	–	CC(=O)N[C@@H]1C[C@@H]2CN(c3ccc(C(F)(F)F)cc3)c3ccc(C)nc3N2C1 [compound 107, N-((6aR,8R)-2-methyl-5-(4-(trifluoromethyl)phenyl)-5,6,6a,7,8,9-hexahydropyrido[3,2-e]pyrrolo[1,2-a]pyrazin-8-yl) acetamide]
